The record followed here is EP2712863B1, “Novel inhibitors of bacterial biofilms and related methods” (Sequoia Sciences, Inc., priority 2012, dated 2014).

The structures appear in SMILES notation. In brackets after ≈: the same amount, converted by molar mass. Where two headings read alike, the source gives them in different places. Bounds are passed on as bounds.

In experiment [1] the test system is P. aeruginosa. Kind of experiment: Biofilm growth assay (spreading biofilm on semi-solid agar). Format: cell-based. The settings on record: for IC85: Pseudomonas aeruginosa. The text has this:
(§1) "Biofilm Growth Assay" refers to an assay performed on semi-solid agar surface where the bacteria collectively move out from an inoculation point. To those skilled in the art, the act of bacteria collectively moving out from an inoculation point on a semi-solid surface may be referred to as swarming or a spreading biofilm. (Anderson, et al Microbiology, 2003, 149, 37-46; Daniels, et al. FEMS Microbiology Reviews, 2004, 28, 261-289). The procedure to perform this assay is described in detail in the Examples. This type of surface motility by bacteria has been reported in the literature by those skilled in the art.
(§2) The biofilm growth assay was carried out to measure swarming or biofilm spreading on semi-solid agar media in round plates (for example, 100 × 15 mm), also referred to as Petri dishes. For E. coli, the plates contained LB medium with 0.6% agar and 0.5% glucose. P. aeruginosa plates were made with M8 agar supplemented with 0.2% glucose, 100 µM CaCl2, 1 mM MgSO4, and 0.5% Casamino acids. The agar plates of this assay consisted of 0.4% to 0.7% agar (Bacto or Noble agar), although other media may also be used as described in the literature and known to those skilled in the art. Test compounds at the desired concentration were added to the cooled, autoclaved media. Portions of the media were then poured into the plates (20 mL/plate), and the plates allowed to dry at room temperature for approximately 3 to 4 hours. Alternatively, however, plates may be dried in a laminar flow hood for approximately fifteen to twenty minutes. Overnight cultures were grown in a 37°C shaker in LB (E. coli) or TSB (P. aeruginosa). Plates were inoculated by placing 5 µL of the appropriate overnight culture in the centers of the plates. The plates then were incubated overnight at 37°C. The area of the zone of spreading bacteria was then measured and replicates are averaged. Percent inhibition was calculated as 100 × (area without compound - area with compound)/(area without compound). An active compound was considered that which reduces the area of the spreading biofilm compared to negative controls by greater than or equal to 85%. The values shown in Table 1 are the concentrations of compounds (µg/ml) tested in the biofilm growth assay that reduce the area of the spreading biofilm compared to negative controls by greater than or equal to 85% unless noted differently in Table 1. A > ("greater than" symbol) as used in Table 1 is well understood to those skilled in the art as an indication that the listed concentration was not effective at this concentration.
(§3) All of the compounds shown in Tables 2, 3, 4, and 5, below, were prepared semi-synthetically from oleanolic acid, except for Compounds 2 and 3. Compound 2 was prepared from ursolic acid. Compound 3 was prepared from hederagenin, but could also be prepared from an oleanolic acid analog with a hydroxyl at C23 or C24. These compounds were tested in the spreading biofilm assay according to the methods detailed in Example I, above. The values shown in Tables 2, 3, 4, and 5 are the concentrations of compounds tested in the biofilm growth assay that reduce the area of the spreading biofilm compared to negative controls by greater than or equal to 85%. Table 2. Compound 1 and its Analogs and their inhibitory concentrations in the biofilm growth assay as detailed in Example I, above

Experiment [2] deals with E. coli. Described as above. In kind it is cell-based. The settings on record: Escherichia coli, concentration that reduces the area of the spreading biofilm by >= 85%, read-out: E. coli.
From the text: as §1, §2, §3

Where [3] appears, read: Table 3, concentration that reduces the area of the spreading biofilm by >= 85%, read-out: P. aeruginosa.
Setting [4] is: Table 4, concentration that reduces the area of the spreading biofilm by >= 85%, read-out: P. aeruginosa.

With `CC1(C)CC[C@]2(C(=O)O)CC[C@]3(C)C(=C(c4ccoc4)CC4[C@@]5(C)Cc6c(n[nH]c6N)C(C)(C)[C@@H]5CC[C@]43C)[C@@H]2C1` (stereo partly drawn) [Compound 26, (4aS,6aS,6bR,8aR,13aR,15bS)-12-Amino-15-(furan-3-yl)-2,2,6a,6b,9,9,13a-heptamethyl-2,3,4,4a,5,6,6a,6b,7,8,8a,9,11,13,13a,13b,14,15b-octadecahydro-1H-chryseno[1,2-f]indazole-4a-carboxylic acid], the results for the IC85 in experiment [1] (setting [3]) and in experiment [2] (Table 3) were 0.25 µg/mL (≈ 0.447 µM) and 1 mg/L (≈ 1.79 µM), respectively.

On to `CC1(C)CC[C@]2(C(=O)Sc3nnc(N)[nH]3)CC[C@]3(C)C(=C(c4cccnc4)CC4[C@@]5(C)Cc6c(n[nH]c6N)C(C)(C)[C@@H]5CC[C@]43C)[C@@H]2C1` (stereo partly drawn) [Compound 91, (4aS,6aS,6bR,8aR,13aR,15bS)-S-5-Amino-4H-1,2,4-triazol-3-yl 12-amino-2,2,6a,6b,9,9,13a-heptamethyl-15-(pyridin-3-yl)-2,3,4,4a,5,6,6a,6b,7,8,8a,9,11,13,13a,13b,14,15b-octadecahydro-1H-chryseno[1,2-f]indazole-4a-carbothioate], for which the IC85 is 1 µg/mL (≈ 1.49 µM) in experiment [1] (Table 5, concentration that reduces the area of the spreading biofilm by >= 85%, read-out: P. aeruginosa) and 1 mg/L (≈ 1.49 µM) in experiment [2] (Table 5).

As to `CC1(C)CC[C@]2(C(=O)O)CC[C@]3(C)C(=C(c4coc(CN5CCNCC5)c4)CC4[C@@]5(C)Cc6c(n[nH]c6N)C(C)(C)C5CC[C@]43C)C2C1` (stereo partly drawn) [Compound 39, (4aS,6aS,6bR,13aR)-12-Amino-2,2,6a,6b,9,9,13a-heptamethyl-15-(5-(piperazin-1-ylmethyl)furan-3-yl)-2,3,4,4a,5,6,6a,6b,7,8,8a,9,11,13,13a,13b,14,15b-octadecahydro-1H-chryseno[1,2-f]indazole-4a-carboxylic acid], the IC85 came out at 1 µg/mL (≈ 1.52 µM) in experiment [1] (setting [3]) and 2 mg/L (≈ 3.04 µM) in experiment [2] (Table 3).

As for `CC1(C)CC[C@]2(C(=O)O)CC[C@]3(C)C(=C(c4ccc(CN5CCOCC5)cc4)CC4[C@@]5(C)Cc6c(n[nH]c6N)C(C)(C)C5CC[C@]43C)C2C1` (stereo partly drawn) [Compound 52, (4aS,6aS,6bR,13aR)-12-Amino-2,2,6a,6b,9,9,13a-heptamethyl-15-(4-(morpholinomethyl)phenyl)-2,3,4,4a,5,6,6a,6b,7,8,8a,9,11,13,13a,13b,14,15b-octadecahydro-1H-chryseno[1,2-f]indazole-4a-carboxylic acid], the IC85 in experiment [1] (setting [3]) came out at 1 µg/mL (≈ 1.49 µM); in experiment [2] (Table 3) it was 2 mg/L (≈ 2.99 µM).

Regarding `CC1(C)CC[C@]2(C(=O)O)CC[C@]3(C)C(=C(c4ccncc4)CC4[C@@]5(C)Cc6c(n[nH]c6N)C(C)(C)[C@@H]5CC[C@]43C)[C@@H]2C1` (stereo partly drawn) [Compound 29, (4aS,6aS,6bR,8aR,13aR,15bS)-12-Amino-2,2,6a,6b,9,9,13a-heptamethyl-15-(pyridin-4-yl)-2,3,4,4a,5,6,6a,6b,7,8,8a,9,11,13,13a,13b,14,15b-octadecahydro-1H-chryseno[1,2-f]indazole-4a-carboxylic acid], the IC85 in experiment [1] (setting [3]) was 1 µg/mL (≈ 1.75 µM); in experiment [2] (Table 3) it was 1 mg/L (≈ 1.75 µM).

As to `CC1(C)CC[C@]2(c3n[nH]c(O)c3CCN)CC[C@]3(C)C(=CCC4[C@@]5(C)Cc6c(n[nH]c6N)C(C)(C)C5CC[C@]43C)C2C1` (stereo partly drawn) [Compound 84, 3-((4aS,6aS,6bR,13aR)-12-Amino-2,2,6a,6b,9,9,13a-heptamethyl-2,3,4,4a,5,6,6a,6b,7,8,8a,9,11,13,13a,13b,14,15b-octadecahydro-1H-chryseno[1,2-f]indazol-4a-yl)-4-(2-aminoethyl)-1H-pyrazol-5-ol], the figures for the IC85 in experiment [1] (setting [4]) and in experiment [2] (Table 4) were 0.125 µg/mL (≈ 0.217 µM) and 0.5 mg/L (≈ 0.87 µM), respectively.

Take `CC1(C)CC[C@]2(C(=O)O)CC[C@]3(C)C(=C(c4ccoc4CN4CCOCC4)CC4[C@@]5(C)Cc6c(n[nH]c6N)C(C)(C)[C@@H]5CC[C@]43C)[C@@H]2C1` (stereo partly drawn) [Compound 32, (4aS,6aS,6bR,8aR,13aR,15bS)-12-Amino-2,2,6a,6b,9,9,13a-heptamethyl-15-(2-(morpholinomethyl)furan-3-yl)-2,3,4,4a,5,6,6a,6b,7,8,8a,9,11,13,13a,13b,14,15b-octadecahydro-1H-chryseno[1,2-f]indazole-4a-carboxylic acid]: the figures for the IC85 in experiment [1] (setting [3]) and in experiment [2] (Table 3) were 0.5 µg/mL (≈ 0.759 µM) and 1 mg/L (≈ 1.52 µM), respectively.

In the case of `CC1(C)CC[C@]2(C(=O)n3cnc(S)n3)CC[C@]3(C)C(=CCC4[C@@]5(C)Cc6c(n[nH]c6N)C(C)(C)C5CC[C@]43C)C2C1` (stereo partly drawn) [Compound 76, ((4aS,6aS,6bR,13aR)-12-Amino-2,2,6a,6b,9,9,13a-heptamethyl-2,3,4,4a,5,6,6a,6b,7,8,8a,9,11,13,13a,13b,14,15b-octadecahydro-1H-chryseno[1,2-f]indazol-4a-yl)(3-mercapto-1H-1,2,4-triazol-1-yl)methanone], the IC85 in experiment [1] (setting [4]) came out at 0.5 µg/mL (≈ 0.867 µM); in experiment [2] (Table 4) it was 2 mg/L (≈ 3.47 µM).

Turning to `CC1(C)CC[C@]2(C(=O)O)CC[C@]3(C)C(=C(c4ccc(N5CCNCC5)cc4)CC4[C@@]5(C)Cc6c(n[nH]c6N)C(C)(C)C5CC[C@]43C)C2C1` (stereo partly drawn) [Compound 50, (4aS,6aS,6bR,13aR)-12-Amino-2,2,6a,6b,9,9,13a-heptamethyl-15-(4-(piperazin-1-yl)phenyl)-2,3,4,4a,5,6,6a,6b,7,8,8a,9,11,13,13a,13b,14,15b-octadecahydro-1H-chryseno[1,2-f]indazole-4a-carboxylic acid], the IC85 in experiment [1] (setting [3]) is 2 µg/mL (≈ 3.06 µM); in experiment [2] (Table 3) it was 1 mg/L (≈ 1.53 µM).

Consider `CC1(C)CC[C@]2(C(=O)n3ccnc3N)CC[C@]3(C)C(=CCC4[C@@]5(C)Cc6c(n[nH]c6N)C(C)(C)C5CC[C@]43C)C2C1` (stereo partly drawn) [Compound 73, (2-Amino-1H-imidazol-1-yl)((4aS,6aS,6bR,13aR)-12-amino-2,2,6a,6b,9,9,13a-heptamethyl-2,3,4,4a,5,6,6a,6b,7,8,8a,9,11,13,13a,13b,14,15b-octadecahydro-1H-chryseno[1,2-f]indazol-4a-yl)methanone], for which the values for the IC85 in experiment [1] (setting [4]) and in experiment [2] (Table 4) were 1 µg/mL (≈ 1.79 µM) and 1 mg/L (≈ 1.79 µM), respectively.

Take `CC1(C)CC[C@]2(c3nnc(S)[nH]3)CC[C@]3(C)C(=CCC4[C@@]5(C)Cc6c(n[nH]c6N)C(C)(C)C5CC[C@]43C)C2C1` (stereo partly drawn) [Compound 75, 5-((4aS,6aS,6bR,13aR)-12-Amino-2,2,6a,6b,9,9,13a-heptamethyl-2,3,4,4a,5,6,6a,6b,7,8,8a,9,11,13,13a,13b,14,15b-octadecahydro-1H-chryseno[1,2-f]indazol-4a-yl)-4H-1,2,4-triazole-3-thiol]: the IC85 amounted to 0.5 µg/mL (≈ 0.911 µM) in experiment [1] (setting [4]) and 1 mg/L (≈ 1.82 µM) in experiment [2] (Table 4).

Take `C[C@H]1[C@H](C)CC[C@]2(C(=O)O)CC[C@]3(C)C(=CC[C@@H]4[C@@]5(C)C[C@@H](O)[C@H](O)C(C)(C)[C@@H]5CC[C@]43C)[C@H]12` [Corosolic acid, reference compound]: the IC85 in experiment [1] (Table 1, concentration that reduces the area of the spreading biofilm vs negative controls by >= 85%, > means not effective at this concentration, read-out: P. aeruginosa) is 4 µg/mL (≈ 8.46 µM).

On to `CC1(C)CC[C@]2(C(=O)O)CC[C@]3(C)C(=CC[C@@H]4[C@@]5(C)C[C@@H](O)[C@H](O)C(C)(C)[C@@H]5CC[C@]43C)[C@@H]2C1` [Maslinic acid, reference compound], for which, in experiment [1] (read-out: P. aeruginosa (µg/ml)), the IC85 worked out at 4 µg/mL (≈ 8.46 µM).

For the compound `CC1(C)CC[C@]2(C(=O)O)CC[C@]3(C)C(=C(c4cc[nH]c4)CC4[C@@]5(C)Cc6c(n[nH]c6N)C(C)(C)[C@@H]5CC[C@]43C)[C@@H]2C1` (stereo partly drawn) [Compound 6, (4aS,6aS,6bR,8aR,13aR,15bS)-12-Amino-2,2,6a,6b,9,9,13a-heptamethyl-15-(1H-pyrrol-3-yl)-2,3,4,4a,5,6,6a,6b,7,8,8a,9,11,13,13a,13b,14,15b-octadecahydro-1H-chryseno[1,2-f]indazole-4a-carboxylic acid], in experiment [2] (Table 2), the IC85 is 0.25 mg/L (≈ 0.447 µM).

With `C[C@H]1[C@H](C)CC[C@]2(C)CC[C@]3(C)C(=CC[C@@H]4[C@@]5(C)CC[C@H](O)C(C)(C)[C@@H]5CC[C@]43C)[C@H]12` [alpha-Amyrin, reference compound], the “P. aeruginosa” value in experiment [1] (Table 1, concentration that reduces the area of the spreading biofilm vs negative controls by >= 85%, > means not effective at this concentration) is over 32 µg/mL.
